Data on 51 molecules can be found in PubChem BioAssay AID1996.

In brackets after ≈: the same amount, converted by molar mass.

In general, solubility (kinetic) refers to solubility judged after dilution from a stock solution rather than from solid.

For the data set the following is noted: buffer; pH 7.4; 200.0 µM.
Molecule `COc1cccc(C(=O)Nc2cccc3c2ccc2cccn23)c1` came in with a kinetic solubility of 1.3 µg/mL (≈ 4.11 µM). The figure for `S=C(NCCc1ccc(Cl)cc1)NCc1ccccc1` is 16.7 µg/mL (≈ 54.8 µM); for `O=C(O)CN1CCCCCC1=O` it is over 25.7 µg/mL. `CCc1ccccc1NC(=S)N1CCN(c2ccccc2F)CC1` yielded a kinetic solubility of 4.4 µg/mL (≈ 12.8 µM). The figure for `CN(CC(=O)Nc1cccc(F)c1)CC(=O)N1CCCCC1` is over 46.1 µg/mL. The figure for `COC(=O)/C=C1\SC(=NC(=O)c2ccc(OC)cc2)NC1=O` is 12 µg/mL (≈ 37.5 µM).

For the molecule `Cc1c(C)n(-c2ccccc2)c2ncnc(NCCN(C)C)c12`, the solubility (kinetic) was over 46.4 µg/mL.

`CCOC(=O)c1csc(NC(=O)c2cc3ccccc3o2)n1`: the solubility (kinetic) was 0.8 µg/mL (≈ 2.53 µM). The value for `Cc1ccc(C(=O)NC2CC3CCC(C2)N3C)cc1` (stereo unspecified) was over 38.8 µg/mL.

The molecule `CN(CC(=O)Nc1ccccc1Cl)CC(=O)N(C)c1c(N)n(Cc2ccccc2)c(=O)[nH]c1=O` returned a solubility (kinetic) of 65.2 µg/mL (≈ 134 µM). The figure for `CC(C)c1ccc(S(=O)(=O)NCc2ccc3c(c2)OCO3)cc1` is 1.9 µg/mL (≈ 5.7 µM); for `COC(=O)c1ccc(OCC(=O)NC2CCCCCC2)cc1` it is over 45.8 µg/mL; for `COc1ccc(/C=C2\C(=O)ON=C2c2ccccc2)cc1OC` it is 45.7 µg/mL (≈ 148 µM). The molecule `N#C/C(=C\c1cccnc1)C(=O)Nc1ccccc1[N+](=O)[O-]` showed a solubility (kinetic) of 30.2 µg/mL (≈ 103 µM). The figure for `CN(CC(=O)Nc1ccc(F)c(F)c1F)C(=O)c1ccc(=O)[nH]c1` is over 50.9 µg/mL; for `Cc1nc2ccc([N+](=O)[O-])cc2c(=O)n1Cc1ccc(F)cc1` it is 4.7 µg/mL (≈ 15 µM). In turn, `O=C(NCc1cccnc1)C(=O)C1C(=O)Nc2ccccc21` (stereo unspecified) registered a solubility (kinetic) of 42.5 µg/mL (≈ 144 µM). The value for `O=C(NCc1cccc(C(F)(F)F)c1)c1ccc2c(c1)OCCO2` was 6.1 µg/mL (≈ 18.1 µM); that for `COc1ccc(S(=O)(=O)n2cccc2)cc1` was 4.2 µg/mL (≈ 17.7 µM).

Regarding `Cc1cccc(C)c1NC(=O)N1CC=CCC1`, the kinetic solubility was over 34.5 µg/mL. In turn, `O=C(NCc1ccco1)C1CCCN1C(=O)Nc1ccc(Cl)cc1` (stereo unspecified) returned a kinetic solubility of 3.4 µg/mL (≈ 9.78 µM).

`Cc1cc(NC(=O)COC(=O)c2ccccc2Cl)no1` returned a kinetic solubility of 16.3 µg/mL (≈ 55.3 µM). The figure for `CC(C)(C)N=Cc1c(O)ccc2oc3c(c12)CCCC3` is 6.5 µg/mL (≈ 24 µM); for `O=C(/C=C/c1ccco1)Nc1ccc2nc3n(c(=O)c2c1)CCCC3` it is 3.7 µg/mL (≈ 11 µM). The figure for `CCC(CC)NC(=O)Nc1ccccc1C(F)(F)F` is 10.8 µg/mL (≈ 39.4 µM); for `CSc1nc2nc3c(cc2c(=O)n1-c1ccc(C)cc1)COC(C)(C)C3` it is 2.3 µg/mL (≈ 6.26 µM); for `O=C(NCc1ccc(F)cc1F)c1cc(COc2c(F)cccc2F)on1` it is 1.5 µg/mL (≈ 3.94 µM).

In turn, `O=C(NCCCNC(=O)c1ccco1)c1ccc(Cl)cc1` returned a solubility (kinetic) of over 46 µg/mL. The value for `COc1ccc(OC)c(C(=O)NC2CCSc3ccccc32)c1` (stereo unspecified) was 12.1 µg/mL (≈ 36.7 µM); that for `Cc1ccc(NS(=O)(=O)N2CCOCC2)c(C)c1` was over 40.6 µg/mL. The figure for `O=C(Cc1ccc([N+](=O)[O-])cc1)Nc1nccs1` is 4.8 µg/mL (≈ 18.2 µM); for `CC1=CC(C)(C)N(C(=O)CN2C(=O)CCC2=O)c2ccc(C)cc21` it is over 49 µg/mL; for `Cc1[nH]c2ccc(C(=O)N3CCCC3)cc2c1C` it is over 36.3 µg/mL. The figure for `Nc1nonc1OCCOCCOCCOc1nonc1N` is 45.7 µg/mL (≈ 144 µM); for `CCCN(CCC)S(=O)(=O)c1cccc(-c2csc(C)n2)c1` it is 8 µg/mL (≈ 23.6 µM); for `Cc1nccn1C[C@@H]1CCc2c(c3ccccc3n2C)C1=O` it is 32.5 µg/mL (≈ 111 µM).

`O=c1oc2ccccc2c(N2CCOCC2)c1[N+](=O)[O-]` had a solubility (kinetic) of over 41.4 µg/mL. The value for `CC(=O)Nc1cccc(NC=C(C#N)C#N)c1` was 11.7 µg/mL (≈ 51.7 µM).

In turn, `COC(=O)c1ccc(N2CCc3ccccc32)c([N+](=O)[O-])c1` gave a kinetic solubility of 1 µg/mL (≈ 3.35 µM). The figure for `COc1cc(CN2CCN(c3ncccn3)CC2)cc(OC)c1` is over 47.2 µg/mL; for `Cc1ccc(C)c(NC(=O)C(=O)NCCc2c[nH]c3ccccc23)c1` it is 0.7 µg/mL (≈ 2.09 µM). The value for `CCOc1cccc(C(=O)NC(=S)Nc2ccc(Cl)cc2C(=O)O)c1` was 55.2 µg/mL (≈ 146 µM). The value for `COc1ccccc1N1CCN(CC(=O)NCc2ccc(Cl)cc2)CC1` was over 56.1 µg/mL; that for `Cc1cnc(C(=O)OCC(=O)N2C(C)CCCC2C)cn1` (stereo unspecified) was over 43.7 µg/mL.

The molecule `O=C(Nc1ccc2ncccc2c1)c1cccc(Br)c1` gave a kinetic solubility of 2.5 µg/mL (≈ 7.64 µM). The figure for `O=C1Cc2cc(NS(=O)(=O)c3ccc(Cl)cc3)cc3c2N1CCC3` is 42.9 µg/mL (≈ 118 µM); for `O=C(NC1CCCCC1)c1cc(-c2ccc(F)cc2)on1` it is under 0.3 µg/mL; for `CC(O)CN1CC(O)=C(c2nc3ccccc3s2)C1=N` (stereo unspecified) it is 17.8 µg/mL (≈ 61.5 µM). The figure for `CCCN1CNc2c(c(=O)[nH]c(=S)n2CCc2ccccc2)C1` is 1.7 µg/mL (≈ 5.14 µM). The value for `COc1cc(OC)cc(C(=O)Nc2ccc(CN3CCCCC3)cc2)c1` was 49.2 µg/mL (≈ 139 µM); that for `COc1ccccc1/C=C1\C(=O)NC(=S)N(c2ccccc2)C1=O` was over 50.8 µg/mL.
